From patent US20040023986A1, “Substituted felbamate derived compounds” (priority 2003, published 2004)

What was measured:
[1] = LC/MS quantification of felbamate and its metabolites excreted in patient urine; format: in vivo, human; details: 34 urine samples from 31 patients on felbamate therapy
Description: Preparation of Patient Urine Samples. Urine samples were obtained from patient volunteers undergoing felbamate therapy for control of epileptic seizures and under the care of physicians at either the University of Virginia (Charlottesville, Va.) or the EpiCare Center (Memphis, Tenn.). Urine samples were diluted four fold with distilled water (this was done prior to overnight shipment for samples requiring shipping) and placed in an orbital shaking water bath for˜20 min at 37° C. to insure that all of the analytes were in solution. 500 μL of this diluted sample were removed and added to 100 μL of a mixture of the four deuterated internal standards. […] After mixing, 200 μL were removed and added to 20 μL of 20% H0Ac. […] This fraction was then analyzed by LC/MS without further manipulation.
LC/MS Analysis of Urine Samples for Metabolite Quantification. LC/MS analysis was performed using a Waters 2690 HPLC equipped with an autosampler and a Waters 486 tunable absorbance detector. […] The post-column flow was directed through a Waters 486 tunable absorbance detector (10 μL flow cell, λ=214 nm) which was used for qualitative assessment of the sample and not for quantitation. […]
Quantification was achieved by integration of the peaks from the mass chromatogram for each analyte using software (Navigator 1.1) provided with the LCQ. […]

[2] = cited from earlier work
[3] = system: rat model of painful peripheral neuropathy; details: rat (Imamura 1995); cited from earlier work
[4] = system: intractable tic douloureux; details: doses of 1200-2400 mg/day (Chesire 1995); cited from earlier work
[5] = felbamate therapy; cited from earlier work
[6] = Chemical stability of felbamate metabolites; format: physicochemical; details: at relevant pH
[7] = human, after felbamate; cited from earlier work

NC(=O)OCC(COC(N)=O)c1ccccc1 [felbamate, 2-phenyl-1,3-propanediol dicarbamate]
presence of atropaldehyde derived mercapturic acids 7 and 8 in urine [1]: All of the urine samples analyzed were found to contain both of the mercapturic acids
course of weight loss ([2]; add-on therapy in partial epilepsy in children (Carmant 1994)): weight loss was transient and returned to normal after twenty weeks
weight loss ([2]; patients on felbamate monotherapy (Faught 1993)): 4-5%
measures of pain [3]: significant reductions in all measures of pain
treatment effect [4]: effectively treated
mean onset time of severe toxicities [5]: ≤ 6 months

O=C1NC(=O)C(c2ccccc2)CO1 (centres unmarked) [oxazinane-dione 9]
stability [6]: unstable

NC(=O)CC(C(=O)O)c1ccccc1 (centres unmarked) [acid carbamate 4, 3-carbamoyl-2-phenylpropionic acid]
fraction of a felbamate dose represented by the metabolite [7]: ~12 % of a dose
